Measured values taken from patent publication US5677288A, “Use of aminoglycosides to protect against excitotoxic neuron damage” (Cypros Pharmaceutical Corporation, priority 1994, dated 1997).
“Also recorded” adds a separate entry of the source. Like-named read-outs stand apart in the source and are kept apart here.

Columns and labels:
[1] = tested on: N-type calcium channels (N-channels); type: binding, rats or mice; conditions: for IC50: omega-conotoxin binding, brain membrane fragments, read-out: N-channel IC50
L-type Ca2+ channel = assay: inhibition of tritiated dihydropyridine PN-200 binding to the L-type Ca2+ channel; conditions: in words
Protocol: These tests were carried out as follows. Brain tissue was used from rats or mice that had been anesthetized with halothane and decapitated. Membrane fractions were prepared as follows. Tissue samples were mixed with 25 tissue-volumes of 50 mM Tris-HCl buffer, pH 7.5. Tissue-buffer mixtures were homogenized using a Brinkman Polytron homogenizer, and resulting tissue homogenate was centrifuged at 2,400 g to pellet non-membrane derived material. The supernatant containing the brain membrane fragments was centrifuged at 30,000 g in a refrigerated (4° C.) centrifuge for 20 minutes. The pellet was resuspended in 100 tissue-volumes of the Tris-HCl buffer and centrifuged again as above. The process was repeated two more times, and the resulting pellet was resuspended in Tris-HCl buffer solution. The suspended tissue contained synaptosomal and other neurally derived membrane fragments with intact N-channels.

PTZ-induced seizures [2] = assay: PTZ-induced seizures in mice (ICV); type: in vivo, Swiss Webster mice; conditions: for % having seizures: PTZ 70 mg/kg
Protocol: In addition to the in vivo gerbil experiments described in Example 4, aminoglycosides were tested in various ways to evaluate their ability to inhibit experimentally-induced seizures in mice. In one set of tests, male Swiss Webster white mice weighing 20-25 grams were used. The animals (10 per group) were pre-injected with 3 microliters (μL) of either a saline solution (control group), or saline solution containing varying dosages of neomycin sulfate. The injection was performed via the […] route, to insure access of the neomycin to neurons; when these experiments were initially performed, questions concerning the ability of neomycin to penetrate the BBB had not yet been addressed. These injections were performed as described in Haley and McCormick 1957. Twenty minutes after the injections, the animals were administered a dose of 70 mg/kg of the convulsion-inducing drug pentylenetetrazol (PTZ), injected subcutaneously in saline solution. Control animals treated with ICV saline have full seizures within seven minutes following this dose of PTZ.

PTZ-induced seizures [3] = conditions: in words; not measured in these tests; cited from earlier work
[4] = tested on: electroconvulsive seizures; assay: electroconvulsive seizures (ECS) in mice; conditions: ICV, scale one to six, six = no seizure activity
Protocol: This was accomplished using a set of platinum electrodes placed subcutaneously in two skull regions of Swiss Webster (20-25 gram) mice. The stimulus voltage was 22 mv at a duration of 0.125 mSec.
The seizures were graded on a severity scale of one to six. A score of six represented a complete absence of seizure activity, while a score of one represented the presence of a full tonic-clonic seizure with total hind leg extension. Test drugs were administered via the ICV route in a total volume of 2.5 microliters, 15 minutes prior to the administration of the electroconvulsive shock.

PTZ-induced seizures [5] = assay: PTZ-induced seizures in rats (ICV or IP); conditions: 2 mg/kg
Protocol: Seizure studies were also performed in male Sprague Dawley rats (250-300 grams). In these studies, cannulas were implanted in the lateral cerebral ventricles of several animals so that the test drugs could be administered directly into the lateral ventricle of the brain. The drugs being tested were administered 15 minutes before the administration of a convulsant drug, PTZ, at a dose of 60 mg/kg (in a saline vehicle) injected subcutaneously.
A second series of experiments was performed where neomycin sulfate was administered by the IP 30 minutes prior to PTZ injection.

[6] = tested on: CA1 neurons in hippocampal tissue slices; assay: protection of rat hippocampal tissue slices (CA1 population spike recovery) against hypoxia; type: cell-based, Sprague-Dawley rats
[7] = tested on: N-channels on blood platelets; type: binding, human; conditions: approximate results from initial tests, read-out: Conotoxin blockage
blood platelets = assay: inhibition of ADP-induced platelet aggregation; type: cell-based, human; conditions: 20 μM ADP, approximate results from initial tests

NCC[C@H](O)C(=O)N[C@@H]1C[C@H](N)[C@@H](O[C@H]2O[C@H](CN)[C@@H](O)[C@H](O)[C@H]2O)[C@H](O)[C@H]1O[C@H]1O[C@H](CO)[C@@H](O)[C@H](N)[C@H]1O [Amikacin]
IC50 [1]: 45 µM

NC[C@H]1O[C@H](O[C@H]2[C@H](O)[C@@H](O[C@H]3O[C@H](CO)[C@@H](O)[C@H](N)[C@H]3O)[C@H](N)C[C@@H]2N)[C@H](N)[C@@H](O)[C@@H]1O [Bekanamycin]
IC50 [1]: > 100 µM
L-channel IC50 (L-type Ca2+ channel): No inhibition

OC[C@H]1O[C@@H](n2cnc3c(NC4CCCCC4)ncnc32)[C@H](O)[C@@H]1O [Cyclohexyladenosine, cyclohexyladenosine]
% having seizures (PTZ-induced seizures [2]; 2 μg): 40%
behavioral side effects (PTZ-induced seizures [2]; in words): various behavioral side effects such as ataxia (lack of muscular control, as evidenced by an inability to walk properly) and sedation
known cardiovascular side effects (PTZ-induced seizures [3]): known to provoke hypotension and bradycardia

CN1C(=O)CN=C(c2ccccc2)c2cc(Cl)ccc21 [Diazepam]
Seizure Score ([4]; 5 ug): 4.4
% having seizures (PTZ-induced seizures [5]): 75%

NC[C@@H]1CC[C@@H](N)[C@@H](O[C@H]2[C@H](O)[C@@H](O[C@H]3O[C@H](CO)[C@@H](O)[C@H](N)[C@H]3O)[C@H](N)C[C@@H]2N)O1 [Dibekacin]
IC50 [1]: 60 µM
L-channel IC50 (L-type Ca2+ channel): No inhibition

CNC1C(OC2C(OC3C(O)C(O)C(N=C(N)N)C(O)C3N=C(N)N)OC(C)C2(O)CO)OC(CO)C(O)C1O (stereo not drawn) [Dihydrostreptomicin]
IC50 [1]: > 50 µM

CN[C@H]1C[C@@H](N)[C@H](O)[C@@H](O[C@@H]2O[C@H](CO)[C@H](O)[C@@H]3OC4(O[C@H]23)O[C@H]([C@@H](N)CO)[C@H](O)[C@H](O)[C@H]4O)[C@@H]1O (stereo partly drawn) [Hygromycin B]
IC50 [1]: > 1000 µM

NC[C@H]1O[C@H](O[C@H]2[C@H](O)[C@@H](O[C@H]3O[C@H](CO)[C@@H](O)[C@H](N)[C@H]3O)[C@H](N)C[C@@H]2N)[C@H](O)[C@@H](O)[C@@H]1O [Kanamycin]
IC50 [1]: > 50 µM
L-channel IC50 (L-type Ca2+ channel): No inhibition

C[C@H]1O[C@H](O[C@H]2[C@H](O)[C@@H](O)[C@@H](O)[C@H](O)[C@@H]2O)[C@@H](N)C[C@@H]1NC(=N)C(=O)O [Kasugamycin]
IC50 [1]: > 1000 µM

NC[C@@H]1O[C@H](O[C@H]2[C@@H](O)[C@H](O[C@@H]3[C@@H](O)[C@H](N)C[C@H](N)[C@H]3O[C@H]3O[C@H](CO)[C@@H](O)C[C@H]3N)O[C@@H]2CO)[C@H](N)[C@@H](O)[C@@H]1O[C@H]1O[C@H](CO)[C@@H](O)[C@H](O)[C@@H]1O [Lividomycin A]
IC50 [1]: 50 µM
L-channel IC50 (L-type Ca2+ channel): No inhibition

NC[C@H]1O[C@H](O[C@H]2[C@H](O)[C@@H](O)[C@H](N)C[C@@H]2N)[C@H](N)[C@@H](O)[C@@H]1O [Neamine]
IC50 [1]: 25 µM

NC[C@@H]1O[C@H](O[C@H]2[C@@H](O)[C@H](O[C@@H]3[C@@H](O)[C@H](N)C[C@H](N)[C@H]3O[C@H]3O[C@H](CN)[C@@H](O)[C@H](O)[C@H]3N)O[C@@H]2CO)[C@H](N)[C@@H](O)[C@@H]1O.O=S(=O)(O)O [Neomycin Sulfate]
% having seizures (PTZ-induced seizures [2]; 5 μg ICV): 50%
% having seizures (PTZ-induced seizures [2]; 10 μg ICV): 60%
protection against seizures (PTZ-induced seizures [2]; five or ten micrograms ICV, in words): substantially protected against seizures

NC[C@@H]1O[C@H](O[C@H]2[C@@H](O)[C@H](O[C@@H]3[C@@H](O)[C@H](N)C[C@H](N)[C@H]3O[C@H]3O[C@H](CO)[C@@H](O)[C@H](O)[C@H]3N)O[C@@H]2CO)[C@H](N)[C@@H](O)[C@@H]1O [Paromomycin]
IC50 [1]: 40 µM
L-channel IC50 (L-type Ca2+ channel): No inhibition

NC[C@H]1O[C@H](O[C@H]2[C@H](O[C@@H]3O[C@H](CO)[C@@H](O)[C@H]3O)[C@@H](O)[C@H](N)C[C@@H]2N)[C@H](N)[C@@H](O)[C@@H]1O [Ribostamycin]
L-channel IC50 (L-type Ca2+ channel): No inhibition

CN[C@@H]1[C@@H](O)[C@@H](O[C@@H]2[C@@H](O)[C@H](O[C@H]3OC(CN)=CC[C@H]3N)[C@@H](N)C[C@H]2N)OC[C@]1(C)O [Sisomicin]
N-channel blocking potency (in words) [1]: high potency
N-channel blocking potency (in words) ([1]; listed as sisomicin): most potent N-channel blockers
IC50 [1]: 5 to 10 µM
CA1 antidromic PS amplitude recovery ([6]; 1.0 mM, stimulated slices): 70±15%
CA1 orthodromic PS amplitude recovery ([6]; 1.0 mM, stimulated slices): 76±9%
CA1 antidromic PS recovery ([6]; 1.0 mM, unstimulated slices): 93±3%
CA1 orthodromic PS recovery ([6]; 1.0 mM, unstimulated slices): 93±3%
hypoxic injury potential (HIP) profile ([6]; in words): HIP profiles evolved with a time course similar to untreated slices
neuronal protection against hypoxia (summary) ([6]; in words): restore orthodromic and antidromic activity; also recorded: high level of neuronal protection against hypoxia
L-channel IC50 (L-type Ca2+ channel): No inhibition

CNC1C(O)C(NC)C2OC3(O)C(=O)CC(C)OC3OC2C1O (stereo not drawn) [Spectiomycin]
IC50 [1]: > 1000 µM

[H]/N=C(/N)N[C@H]1[C@H](O)[C@@H](O)[C@H](O[C@@H]2O[C@@H](C)[C@](O)(C=O)[C@H]2O[C@@H]2O[C@@H](CO)[C@H](O)[C@@H](O)[C@@H]2NC)[C@@H](N/C(N)=N\[H])[C@@H]1O [Streptomycin]
IC50 [7]: 15 µM
N-channel blocking potency (in words) [1]: low potency
N-channel blocking potency (in words) ([1]; listed as streptomycin): somewhat less potent N-channel blocker
IC50 [1]: 25 µM
protection of CA1 antidromic population spikes ([6]; 10 mM): 38±22%
neuronal protection against hypoxia (summary) ([6]; in words): ineffective in reducing hypoxic damage to hippocampal tissue slices except when administered in high dosages; also recorded: only marginally effective and required high doses
neuronal protection against hypoxia (summary) ([6]; in words, listed as streptomycin): some potency but at substantially lower levels; also recorded: lower degree of neuroprotection
IC50 (blood platelets; Homo sapiens, Platelet): 5000 µM
L-channel IC50 (L-type Ca2+ channel): No inhibition

NC[C@H]1O[C@H](O[C@H]2[C@H](O)[C@@H](O[C@H]3O[C@H](CO)[C@@H](O)[C@H](N)[C@H]3O)[C@H](N)C[C@@H]2N)[C@H](N)C[C@@H]1O [Tobramycin]
IC50 [1]: > 50 µM

Butirosin
IC50 [1]: 150 µM

Gentamicin
IC50 [7]: 5 µM
Seizure Score ([4]; 40 ug): 4.9
N-channel blocking potency (in words) [1]: intermediate
N-channel blocking potency (in words) ([1]; listed as gentamicin): most potent N-channel blockers
IC50 [1]: 10 µM
CA1 orthodromic PS recovery ([6]; 2.5 mM, stimulated slices): 60±23%
neuronal protection against hypoxia (summary) ([6]; in words): restore orthodromic and antidromic activity; also recorded: high level of neuronal protection against hypoxia
IC50 (blood platelets): 2000 µM
